According to the supplement of paper PMC9663587:

How the values were obtained:
YKL-5-124 = compound: C=CC(=O)Nc1ccc(C(=O)Nc2[nH]nc3c2CN(C(=O)N[C@H](CN(C)C)c2ccccc2)C3(C)C)cc1 [YKL-5-124]; experiment: GR value, 72 h; higher = faster growth (1 = untreated, <0 = killing);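 note: breast cancer and non-malignant breast epithelial lines, nine half-log doses, viable cells counted by Hoechst and LIVE/DEAD dye imaging versus time-zero plates and DMSO controls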
LEE011/Ribociclib = compound: CN(C)C(=O)c1cc2cnc(Nc3ccc(N4CCNCC4)cn3)nc2n1C1CCCC1 [LEE011/Ribociclib]; experiment: as above
THZ531 = compound: CN(C)C/C=C/C(=O)Nc1ccc(C(=O)N2CCC[C@@H](Nc3ncc(Cl)c(-c4c[nH]c5ccccc45)n3)C2)cc1 [THZ531]; experiment: as above
THZ1 = compound: CN(C)C/C=C/C(=O)Nc1ccc(C(=O)Nc2cccc(Nc3ncc(Cl)c(-c4c[nH]c5ccccc45)n3)c2)cc1 [THZ1]; experiment: as above
[1] = compound: CCc1cnn2c(NCc3ccc[n+]([O-])c3)cc(N3CCCC[C@H]3CCO)nc12; experiment: as above
Flavopiridol [2] = compound: T1, CN1CC[C@H](c2c(O)cc(O)c3c(=O)cc(-c4ccccc4Cl)oc23)[C@H](O)C1 [Flavopiridol]; experiment: as above
[3] = compound: CCN1CCN(Cc2ccc(Nc3ncc(F)c(-c4cc(F)c5nc(C)n(C(C)C)c5c4)n3)nc2)CC1; experiment: as above
BSJ-03-123 [4] = compound: T2, CC(=O)c1c(C)c2cnc(Nc3ccc(N4CCN(CCOCCOCCOCCNC(=O)COc5cccc6c5C(=O)N(C5CCC(=O)NC5=O)C6=O)CC4)cn3)nc2n(C2CCCC2)c1=O [BSJ-03-123]; experiment: as above
BVD523 = compound: CC(C)Nc1cc(-c2c[nH]c(C(=O)N[C@H](CO)c3cccc(Cl)c3)c2)c(Cl)cn1 [BVD523]
Neratinib/HKI272 = compound: CCOc1cc2ncc(C#N)c(Nc3ccc(OCc4ccccn4)c(Cl)c3)c2cc1NC(=O)/C=C/CN(C)C [Neratinib/HKI272]
R0-3306 = compound: C1=CC2=C(C=CC(=C2)C=C3C(=O)NC(=NCC4=CC=CS4)S3)N=C1 [R0-3306]
AZD5363 = compound: NC1(C(=O)N[C@@H](CCO)c2ccc(Cl)cc2)CCN(c2nc[nH]c3nccc2-3)CC1 [AZD5363]
Flavopiridol [5] = compound: T1, Flavopiridol
[6] = compound: CCC1=CN=CN=C1N2CCN(CC2)CC3=NC4=C(N3)C=C(C=C4)C(F)(F)F
[7] = compound: CO[C@@H](C)Cn1c(=O)n(C)c2cnc3ccc(-c4cncc(C(C)(C)O)c4)cc3c21
Paclitaxel = compound: CC(=O)O[C@H]1C(=O)[C@@]2(C)[C@H]([C@H](OC(=O)c3ccccc3)[C@]3(O)C[C@H](OC(=O)[C@H](O)[C@@H](NC(=O)c4ccccc4)c4ccccc4)C(C)=C1C3(C)C)[C@]1(OC(C)=O)CO[C@@H]1C[C@@H]2O [Paclitaxel]
BSJ-03-123 [8] = compound: T2, BSJ-03-123
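Throughout, for GR50, 72 h: breast cancer and non-malignant breast epithelial cell lines, Deep Dye Drop or Dye Drop imaging, nine half-log doses, GR normalized to time-zero plates and DMSO-only controls.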

Q: How did the GR value (YKL-5-124; 0.001 µM) turn out when BT549 was run?
A: 0.747 GR

Q: And the GR value (YKL-5-124; 0.003162 µM)?
A: 0.497 GR

Q: And the GR value (YKL-5-124; 0.01 µM)?
A: 0.301 GR

Q: And the GR value (YKL-5-124; 0.03162 µM)?
A: 0.125 GR

Q: And the GR value (YKL-5-124; 0.1 µM)?
A: 0.0904 GR

Q: What about the GR value (YKL-5-124; 0.3162 µM) of the same cell line?
A: 0.0362 GR

Q: And the GR value (YKL-5-124; 1 µM)?
A: -0.0144 GR

Q: What about the GR value (YKL-5-124; 3.162 µM) of the same cell line?
A: -0.0731 GR

Q: What about the GR value (YKL-5-124; 10 µM) of the same cell line?
A: -0.58 GR

Q: And the GR value (LEE011/Ribociclib; 0.001 µM)?
A: 0.972 GR

Q: And the GR value (LEE011/Ribociclib; 0.003162 µM)?
A: 1.06 GR

Q: What about the GR value (LEE011/Ribociclib; 0.01 µM) of the same cell line?
A: 0.919 GR

Q: And the GR value (LEE011/Ribociclib; 0.03162 µM)?
A: 0.997 GR

Q: What about the GR value (LEE011/Ribociclib; 0.1 µM) of the same cell line?
A: 1 GR

Q: And the GR value (LEE011/Ribociclib; 0.3162 µM)?
A: 0.995 GR

Q: And the GR value (LEE011/Ribociclib; 1 µM)?
A: 1 GR

Q: And the GR value (LEE011/Ribociclib; 3.162 µM)?
A: 0.966 GR

Q: And the GR value (LEE011/Ribociclib; 10 µM)?
A: 0.992 GR

Q: What about the GR value (THZ531; 0.0001 µM) of the same cell line?
A: 0.997 GR

Q: What about the GR value (THZ531; 0.0003162 µM) of the same cell line?
A: 0.974 GR

Q: What about the GR value (THZ531; 0.001 µM) of the same cell line?
A: 1.01 GR

Q: And the GR value (THZ531; 0.003162 µM)?
A: 1.01 GR

Q: What about the GR value (THZ531; 0.01 µM) of the same cell line?
A: 1.04 GR

Q: And the GR value (THZ531; 0.03162 µM)?
A: 0.956 GR

Q: And the GR value (THZ531; 0.1 µM)?
A: 0.849 GR

Q: And the GR value (THZ531; 0.3162 µM)?
A: 0.51 GR

Q: What about the GR value (THZ531; 1 µM) of the same cell line?
A: -0.378 GR

Q: And the GR value (THZ1; 0.0001 µM)?
A: 1.06 GR

Q: What about the GR value (THZ1; 0.0003162 µM) of the same cell line?
A: 1.01 GR

Q: What about the GR value (THZ1; 0.001 µM) of the same cell line?
A: 1.02 GR

Q: And the GR value (THZ1; 0.003162 µM)?
A: 0.979 GR

Q: And the GR value (THZ1; 0.01 µM)?
A: 0.909 GR

Q: What about the GR value (THZ1; 0.03162 µM) of the same cell line?
A: 0.69 GR

Q: What about the GR value (THZ1; 0.1 µM) of the same cell line?
A: 0.16 GR

Q: What about the GR value (THZ1; 0.3162 µM) of the same cell line?
A: -0.171 GR

Q: And the GR value (THZ1; 1 µM)?
A: -0.317 GR

Q: What about the GR value ([1]; 0.0001 µM) of the same cell line?
A: 0.971 GR

Q: And the GR value ([1]; 0.0003162 µM)?
A: 1.02 GR

Q: And the GR value ([1]; 0.001 µM)?
A: 1 GR

Q: What about the GR value ([1]; 0.003162 µM) of the same cell line?
A: 0.996 GR

Q: And the GR value ([1]; 0.01 µM)?
A: 0.698 GR

Q: And the GR value ([1]; 0.03162 µM)?
A: -0.221 GR

Q: What about the GR value ([1]; 0.1 µM) of the same cell line?
A: -0.261 GR

Q: What about the GR value ([1]; 0.3162 µM) of the same cell line?
A: -0.275 GR

Q: And the GR value ([1]; 1 µM)?
A: -0.293 GR

Q: What about the GR value (Flavopiridol [2]; 0.0001 µM) of the same cell line?
A: 1.03 GR

Q: What about the GR value (Flavopiridol [2]; 0.0003162 µM) of the same cell line?
A: 0.982 GR

Q: What about the GR value (Flavopiridol [2]; 0.001 µM) of the same cell line?
A: 1.01 GR

Q: And the GR value (Flavopiridol [2]; 0.003162 µM)?
A: 0.958 GR

Q: And the GR value (Flavopiridol [2]; 0.01 µM)?
A: 1.02 GR

Q: What about the GR value (Flavopiridol [2]; 0.03162 µM) of the same cell line?
A: 0.894 GR

Q: And the GR value (Flavopiridol [2]; 0.1 µM)?
A: 0.695 GR

Q: And the GR value (Flavopiridol [2]; 0.3162 µM)?
A: 0.11 GR

Q: And the GR value (Flavopiridol [2]; 1 µM)?
A: -0.455 GR

Q: What about the GR value ([3]; 0.001 µM) of the same cell line?
A: 0.992 GR

Q: What about the GR value ([3]; 0.003162 µM) of the same cell line?
A: 1.03 GR

Q: And the GR value ([3]; 0.01 µM)?
A: 0.997 GR

Q: And the GR value ([3]; 0.03162 µM)?
A: 1.02 GR

Q: And the GR value ([3]; 0.1 µM)?
A: 0.952 GR

Q: And the GR value ([3]; 0.3162 µM)?
A: 0.963 GR

Q: What about the GR value ([3]; 1 µM) of the same cell line?
A: 0.895 GR

Q: What about the GR value ([3]; 3.162 µM) of the same cell line?
A: 0.588 GR

Q: What about the GR value ([3]; 10 µM) of the same cell line?
A: 0.0335 GR

Q: And the GR value (BSJ-03-123 [4]; 0.001 µM)?
A: 0.998 GR

Q: And the GR value (BSJ-03-123 [4]; 0.003162 µM)?
A: 0.999 GR

Q: What about the GR value (BSJ-03-123 [4]; 0.01 µM) of the same cell line?
A: 1 GR

Q: And the GR value (BSJ-03-123 [4]; 0.03162 µM)?
A: 0.988 GR

Q: What about the GR value (BSJ-03-123 [4]; 0.1 µM) of the same cell line?
A: 0.998 GR

Q: What about the GR value (BSJ-03-123 [4]; 0.3162 µM) of the same cell line?
A: 0.976 GR

Q: What about the GR value (BSJ-03-123 [4]; 1 µM) of the same cell line?
A: 0.938 GR

Q: And the GR value (BSJ-03-123 [4]; 3.162 µM)?
A: 0.88 GR

Q: And the GR value (BSJ-03-123 [4]; 10 µM)?
A: 0.0237 GR

Q: And the “GR50, 72 h” value (BVD523)?
A: > 10 µM

Q: And the “GR50, 72 h” value (Neratinib/HKI272)?
A: 1.99 µM

Q: What about the “GR50, 72 h” value (R0-3306) of the same cell line?
A: 5.42 µM

Q: What about the “GR50, 72 h” value (AZD5363) of the same cell line?
A: > 10 µM

Q: And the “GR50, 72 h” value (Flavopiridol [5])?
A: 0.161 µM

Q: What about the “GR50, 72 h” value [6] of the same cell line?
A: > 10 µM

Q: And the “GR50, 72 h” value [7]?
A: 0.00122 µM

Q: And the “GR50, 72 h” value (Paclitaxel)?
A: 0.00272 µM

Q: And the “GR50, 72 h” value (BSJ-03-123 [8])?
A: 6.36 µM
